Measurements: patent US7759331B2, “Pyridine-containing macroheterococylic compounds as kinase inhibitors” (Janssen Pharmaceutica NV, priority 2006, dated 2010)

Columns and labels:
Assay in all cases: Protein kinase selectivity panel
Type in all cases: biochemical
Conditions in all cases: 1.0 μM compound, 10 μM ATP
Arg(m) = Arg(m) (Mus musculus, UniProt Q4JIM5)
Description: (§1) Protein kinase selectivity assays were performed as described in the scientific literature (Davies, S. P., et al., Biochem. J. 2000, 351, 95-105). Briefly, protein kinases were assayed for their ability to phosphorylate the appropriate peptide/protein substrates in the presence of 1.0 μM compound. Assays were done using 10 μM ATP and were linear with respect to time. The protein kinase selectivity assays were performed by Upstate Cell Signaling Solutions using Upstate's KinaseProfiler™ Selectivity Screening Service.

BTK(h) = BTK(h) (Homo sapiens, UniProt Q06187)
Chain of BTK(h) (Q06187 whole entry): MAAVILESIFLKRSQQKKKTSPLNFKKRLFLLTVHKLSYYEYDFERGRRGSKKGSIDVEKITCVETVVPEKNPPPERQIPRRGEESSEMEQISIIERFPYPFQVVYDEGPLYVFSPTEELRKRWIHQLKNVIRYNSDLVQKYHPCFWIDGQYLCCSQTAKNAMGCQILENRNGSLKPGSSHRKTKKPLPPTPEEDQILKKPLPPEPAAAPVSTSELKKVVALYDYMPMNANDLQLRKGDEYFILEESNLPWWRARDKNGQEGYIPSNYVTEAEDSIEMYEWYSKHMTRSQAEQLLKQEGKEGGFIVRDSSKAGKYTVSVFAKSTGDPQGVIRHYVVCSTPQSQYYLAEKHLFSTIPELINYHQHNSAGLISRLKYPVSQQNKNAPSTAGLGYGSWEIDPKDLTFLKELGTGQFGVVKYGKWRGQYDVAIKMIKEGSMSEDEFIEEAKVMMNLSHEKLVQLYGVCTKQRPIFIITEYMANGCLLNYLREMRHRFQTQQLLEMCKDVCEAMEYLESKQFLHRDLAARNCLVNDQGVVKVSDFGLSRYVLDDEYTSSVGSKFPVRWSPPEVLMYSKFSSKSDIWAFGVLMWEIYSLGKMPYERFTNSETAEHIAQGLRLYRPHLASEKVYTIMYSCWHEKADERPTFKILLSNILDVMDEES
Description: as §1

Blk(m) = Blk(m) (Mus musculus, UniProt P16277)
Description: as §1

CDK7/cyclinH/MAT1(h) = CDK7/cyclinH/MAT1(h) (Homo sapiens, UniProt P50613)
Chain of CDK7/cyclinH/MAT1(h) (P50613 whole entry): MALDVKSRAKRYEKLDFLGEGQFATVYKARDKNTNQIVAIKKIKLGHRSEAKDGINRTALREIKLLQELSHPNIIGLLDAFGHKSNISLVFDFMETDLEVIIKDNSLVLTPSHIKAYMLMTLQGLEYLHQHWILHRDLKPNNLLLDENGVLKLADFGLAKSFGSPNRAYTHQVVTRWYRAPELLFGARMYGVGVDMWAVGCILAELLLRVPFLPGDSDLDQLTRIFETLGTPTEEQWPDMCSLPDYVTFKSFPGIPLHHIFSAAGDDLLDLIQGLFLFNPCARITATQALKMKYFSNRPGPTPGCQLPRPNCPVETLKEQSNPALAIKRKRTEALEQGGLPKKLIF
Chain of CDK7/cyclinH/MAT1(h) (P51946 whole entry partner): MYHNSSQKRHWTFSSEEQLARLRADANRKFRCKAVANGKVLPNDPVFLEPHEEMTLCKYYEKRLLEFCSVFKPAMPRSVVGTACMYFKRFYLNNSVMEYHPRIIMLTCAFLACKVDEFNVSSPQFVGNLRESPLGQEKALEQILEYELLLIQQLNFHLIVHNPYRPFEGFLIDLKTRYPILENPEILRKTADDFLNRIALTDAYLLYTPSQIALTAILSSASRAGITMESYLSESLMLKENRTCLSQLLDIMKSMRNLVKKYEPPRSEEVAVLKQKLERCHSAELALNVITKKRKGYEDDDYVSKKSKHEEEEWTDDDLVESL
Chain of CDK7/cyclinH/MAT1(h) (P51948 whole entry partner): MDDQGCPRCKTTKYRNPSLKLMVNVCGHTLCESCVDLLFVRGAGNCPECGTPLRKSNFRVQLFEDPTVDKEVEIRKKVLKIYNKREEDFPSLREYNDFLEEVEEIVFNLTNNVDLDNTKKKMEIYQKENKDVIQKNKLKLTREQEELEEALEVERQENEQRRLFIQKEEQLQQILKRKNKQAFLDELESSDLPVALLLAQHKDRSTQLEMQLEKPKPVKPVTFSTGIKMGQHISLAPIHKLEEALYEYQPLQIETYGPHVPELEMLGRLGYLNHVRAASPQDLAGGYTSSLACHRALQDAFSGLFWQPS
Description: as §1

CK1δ(h) = CK1δ(h) (Homo sapiens, UniProt P48730)
Description: as §1

EGFR(h) = EGFR(h) (Homo sapiens, UniProt P00533)
Chain of EGFR(h) (P00533 25-1210): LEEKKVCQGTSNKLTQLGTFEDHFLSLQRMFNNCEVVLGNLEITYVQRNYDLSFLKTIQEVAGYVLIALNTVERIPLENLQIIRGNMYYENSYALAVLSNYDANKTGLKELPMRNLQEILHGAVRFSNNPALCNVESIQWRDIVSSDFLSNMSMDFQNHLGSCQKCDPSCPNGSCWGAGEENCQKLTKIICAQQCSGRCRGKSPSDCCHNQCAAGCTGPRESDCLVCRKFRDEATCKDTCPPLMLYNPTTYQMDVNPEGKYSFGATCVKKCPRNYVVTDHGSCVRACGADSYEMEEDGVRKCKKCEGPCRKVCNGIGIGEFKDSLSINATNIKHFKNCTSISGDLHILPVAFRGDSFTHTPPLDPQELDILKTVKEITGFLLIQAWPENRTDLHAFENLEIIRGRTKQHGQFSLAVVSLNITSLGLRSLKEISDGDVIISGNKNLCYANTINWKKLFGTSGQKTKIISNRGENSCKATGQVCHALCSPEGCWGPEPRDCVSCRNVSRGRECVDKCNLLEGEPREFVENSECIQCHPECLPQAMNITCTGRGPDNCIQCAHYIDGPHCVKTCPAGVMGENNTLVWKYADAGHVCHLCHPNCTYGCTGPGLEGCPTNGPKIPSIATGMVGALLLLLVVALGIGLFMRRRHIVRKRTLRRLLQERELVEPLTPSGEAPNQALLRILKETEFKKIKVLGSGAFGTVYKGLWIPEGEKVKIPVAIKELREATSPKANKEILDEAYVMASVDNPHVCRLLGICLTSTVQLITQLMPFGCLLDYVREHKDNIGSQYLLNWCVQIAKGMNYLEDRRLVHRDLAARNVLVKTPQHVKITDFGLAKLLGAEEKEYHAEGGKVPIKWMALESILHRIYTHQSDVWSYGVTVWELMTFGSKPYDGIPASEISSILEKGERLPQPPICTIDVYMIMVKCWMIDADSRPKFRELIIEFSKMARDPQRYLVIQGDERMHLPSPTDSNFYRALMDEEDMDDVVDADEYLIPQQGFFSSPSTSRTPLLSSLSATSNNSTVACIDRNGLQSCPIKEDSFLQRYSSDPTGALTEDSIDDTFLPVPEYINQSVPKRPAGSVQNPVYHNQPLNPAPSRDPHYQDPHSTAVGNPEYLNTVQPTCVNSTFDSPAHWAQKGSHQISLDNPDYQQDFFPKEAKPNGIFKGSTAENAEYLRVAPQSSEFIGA
Description: as §1

FGFR3(h) = FGFR3(h) (Homo sapiens, UniProt P22607)
Description: as §1

IKKβ(h) = target: T1, IKKβ(h) (Homo sapiens, UniProt O14920)
T1 sequence (O14920 1-756): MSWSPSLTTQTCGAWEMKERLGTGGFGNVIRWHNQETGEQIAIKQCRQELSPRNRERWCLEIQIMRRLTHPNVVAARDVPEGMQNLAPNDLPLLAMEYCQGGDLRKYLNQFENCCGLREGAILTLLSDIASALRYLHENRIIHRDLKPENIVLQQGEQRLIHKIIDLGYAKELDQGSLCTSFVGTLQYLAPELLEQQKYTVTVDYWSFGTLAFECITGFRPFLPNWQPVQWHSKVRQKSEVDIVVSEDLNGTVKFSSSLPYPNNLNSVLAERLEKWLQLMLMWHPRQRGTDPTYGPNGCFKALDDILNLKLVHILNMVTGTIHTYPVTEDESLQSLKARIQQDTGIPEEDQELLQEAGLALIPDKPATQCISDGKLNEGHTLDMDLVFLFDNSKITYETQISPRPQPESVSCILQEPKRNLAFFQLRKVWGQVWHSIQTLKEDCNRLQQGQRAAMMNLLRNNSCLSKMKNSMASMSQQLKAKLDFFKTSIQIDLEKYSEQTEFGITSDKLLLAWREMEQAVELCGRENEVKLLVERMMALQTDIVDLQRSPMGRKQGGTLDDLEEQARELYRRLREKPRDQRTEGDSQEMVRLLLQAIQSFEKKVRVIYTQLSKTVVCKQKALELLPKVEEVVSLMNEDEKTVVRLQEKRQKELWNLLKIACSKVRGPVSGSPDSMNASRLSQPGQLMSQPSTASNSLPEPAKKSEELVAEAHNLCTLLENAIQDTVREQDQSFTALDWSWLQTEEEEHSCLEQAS
Description: as §1

MKK4(m) = target: T2, MKK4(m) (Mus musculus, UniProt P47809)
T2 sequence (P47809 1-397): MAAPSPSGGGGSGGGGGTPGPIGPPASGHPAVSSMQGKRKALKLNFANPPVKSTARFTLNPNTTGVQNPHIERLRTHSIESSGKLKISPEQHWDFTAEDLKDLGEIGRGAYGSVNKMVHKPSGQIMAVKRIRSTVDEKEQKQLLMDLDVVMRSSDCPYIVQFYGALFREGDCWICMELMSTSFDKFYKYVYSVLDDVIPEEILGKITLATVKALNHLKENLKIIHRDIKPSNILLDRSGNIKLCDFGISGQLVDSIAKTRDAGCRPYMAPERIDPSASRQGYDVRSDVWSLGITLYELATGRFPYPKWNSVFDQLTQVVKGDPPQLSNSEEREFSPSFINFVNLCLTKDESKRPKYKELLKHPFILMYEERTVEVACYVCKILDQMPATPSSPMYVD
Description: as §1

PDGFRα(h) = PDGFRα(h) (Homo sapiens, UniProt P16234)
Description: as §1

PRAK(h) = target: T3, PRAK(h) (Homo sapiens, UniProt Q8IW41)
T3 sequence (Q8IW41 1-473): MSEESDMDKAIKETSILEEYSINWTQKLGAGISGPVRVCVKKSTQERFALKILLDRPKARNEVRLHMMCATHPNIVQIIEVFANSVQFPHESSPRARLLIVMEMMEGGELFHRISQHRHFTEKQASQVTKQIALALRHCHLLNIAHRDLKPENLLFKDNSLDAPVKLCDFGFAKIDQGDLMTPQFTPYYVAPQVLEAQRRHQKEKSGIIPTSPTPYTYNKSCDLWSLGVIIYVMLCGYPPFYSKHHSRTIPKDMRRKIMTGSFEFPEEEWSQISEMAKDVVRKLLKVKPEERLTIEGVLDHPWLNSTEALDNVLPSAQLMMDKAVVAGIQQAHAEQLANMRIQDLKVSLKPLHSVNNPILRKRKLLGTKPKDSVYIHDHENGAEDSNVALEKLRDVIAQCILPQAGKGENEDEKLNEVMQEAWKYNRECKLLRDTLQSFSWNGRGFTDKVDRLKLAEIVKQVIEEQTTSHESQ
Description: as §1

Rsk2(h) = Rsk2(h) (Homo sapiens, UniProt P51812)
Chain of Rsk2(h) (P51812 whole entry): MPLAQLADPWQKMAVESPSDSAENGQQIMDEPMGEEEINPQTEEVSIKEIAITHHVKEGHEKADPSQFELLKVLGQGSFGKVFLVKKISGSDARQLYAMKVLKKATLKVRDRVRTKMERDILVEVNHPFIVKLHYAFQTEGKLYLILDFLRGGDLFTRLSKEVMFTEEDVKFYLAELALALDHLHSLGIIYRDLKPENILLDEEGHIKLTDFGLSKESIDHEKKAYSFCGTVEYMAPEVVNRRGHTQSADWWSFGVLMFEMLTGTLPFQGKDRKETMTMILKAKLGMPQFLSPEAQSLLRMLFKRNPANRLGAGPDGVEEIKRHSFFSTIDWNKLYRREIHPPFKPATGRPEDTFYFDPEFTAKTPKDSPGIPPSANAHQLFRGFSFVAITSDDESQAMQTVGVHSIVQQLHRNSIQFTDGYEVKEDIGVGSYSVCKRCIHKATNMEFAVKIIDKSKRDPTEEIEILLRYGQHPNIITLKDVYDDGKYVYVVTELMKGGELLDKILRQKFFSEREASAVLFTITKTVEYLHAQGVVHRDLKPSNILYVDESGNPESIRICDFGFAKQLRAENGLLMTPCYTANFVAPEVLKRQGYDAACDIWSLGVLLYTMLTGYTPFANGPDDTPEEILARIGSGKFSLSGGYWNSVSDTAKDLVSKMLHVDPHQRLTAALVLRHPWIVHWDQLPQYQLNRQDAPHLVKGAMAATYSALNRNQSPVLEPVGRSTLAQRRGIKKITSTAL
Description: as §1

SAPK3(h) = target: T4, SAPK3(h) (Homo sapiens, UniProt P53778)
T4 sequence (P53778 1-367): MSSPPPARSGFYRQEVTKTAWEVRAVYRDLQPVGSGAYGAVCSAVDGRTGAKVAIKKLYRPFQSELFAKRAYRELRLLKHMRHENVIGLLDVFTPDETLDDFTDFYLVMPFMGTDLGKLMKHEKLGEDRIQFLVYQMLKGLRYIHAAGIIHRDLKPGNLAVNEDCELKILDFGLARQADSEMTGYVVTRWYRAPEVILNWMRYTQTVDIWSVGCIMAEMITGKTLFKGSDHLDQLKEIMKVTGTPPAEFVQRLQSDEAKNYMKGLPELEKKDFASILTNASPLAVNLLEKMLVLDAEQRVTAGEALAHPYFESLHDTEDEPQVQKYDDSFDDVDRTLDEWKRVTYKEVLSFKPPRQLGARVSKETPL
Description: as §1

Chain of Arg(m) (Q4JIM5 whole entry): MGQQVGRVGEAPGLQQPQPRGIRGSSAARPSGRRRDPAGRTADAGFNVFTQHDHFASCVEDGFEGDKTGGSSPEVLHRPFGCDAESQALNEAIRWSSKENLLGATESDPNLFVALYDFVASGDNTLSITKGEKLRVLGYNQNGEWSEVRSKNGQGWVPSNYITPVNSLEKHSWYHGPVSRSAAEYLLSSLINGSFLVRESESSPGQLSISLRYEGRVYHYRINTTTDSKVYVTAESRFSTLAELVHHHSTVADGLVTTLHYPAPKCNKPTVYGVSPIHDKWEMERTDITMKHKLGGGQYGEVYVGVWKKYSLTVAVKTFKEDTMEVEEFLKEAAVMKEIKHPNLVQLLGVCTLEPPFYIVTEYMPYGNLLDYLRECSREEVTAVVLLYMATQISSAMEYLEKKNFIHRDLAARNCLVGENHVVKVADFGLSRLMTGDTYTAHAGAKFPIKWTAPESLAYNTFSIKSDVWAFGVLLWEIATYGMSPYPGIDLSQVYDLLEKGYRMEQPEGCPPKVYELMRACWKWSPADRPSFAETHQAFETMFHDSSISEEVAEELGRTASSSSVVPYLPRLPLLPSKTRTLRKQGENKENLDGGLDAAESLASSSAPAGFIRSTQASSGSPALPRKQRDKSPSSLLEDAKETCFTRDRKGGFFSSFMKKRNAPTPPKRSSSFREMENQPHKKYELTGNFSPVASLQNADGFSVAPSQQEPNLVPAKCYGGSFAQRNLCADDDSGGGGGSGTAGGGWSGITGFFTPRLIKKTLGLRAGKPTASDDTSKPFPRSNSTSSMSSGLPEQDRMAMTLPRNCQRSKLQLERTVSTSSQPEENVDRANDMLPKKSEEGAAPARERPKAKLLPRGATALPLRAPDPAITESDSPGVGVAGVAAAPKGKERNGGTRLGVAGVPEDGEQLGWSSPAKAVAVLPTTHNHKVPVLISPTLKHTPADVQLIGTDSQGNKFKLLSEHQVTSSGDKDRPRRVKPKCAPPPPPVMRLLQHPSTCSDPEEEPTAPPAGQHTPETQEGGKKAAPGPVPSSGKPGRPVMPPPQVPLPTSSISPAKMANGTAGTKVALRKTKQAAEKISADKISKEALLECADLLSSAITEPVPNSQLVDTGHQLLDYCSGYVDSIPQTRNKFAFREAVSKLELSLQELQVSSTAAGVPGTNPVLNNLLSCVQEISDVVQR

Activity at Protein Kinase Assays (% of control), Arg(m) (Arg(m))	Activity at Protein Kinase Assays (% of control), BTK(h) (BTK(h))	Activity at Protein Kinase Assays (% of control), Blk(m) (Blk(m))	Activity at Protein Kinase Assays (% of control), CDK7/cyclinH/MAT1(h) (CDK7/cyclinH/MAT1(h))	Activity at Protein Kinase Assays (% of control), CK1δ(h) (CK1δ(h))	Activity at Protein Kinase Assays (% of control), EGFR(h) (EGFR(h))	Activity at Protein Kinase Assays (% of control), FGFR3(h) (FGFR3(h))	Activity at Protein Kinase Assays (% of control), IKKβ(h) (IKKβ(h))	Activity at Protein Kinase Assays (% of control), MKK4(m) (MKK4(m))	Activity at Protein Kinase Assays (% of control), PDGFRα(h) (PDGFRα(h))	Activity at Protein Kinase Assays (% of control), PRAK(h) (PRAK(h))	Activity at Protein Kinase Assays (% of control), Rsk2(h) (Rsk2(h))	Activity at Protein Kinase Assays (% of control), SAPK3(h) (SAPK3(h))	SMILES
113 % of control	105 % of control	109 % of control	89 % of control	107 % of control	94 % of control	75 % of control	128 % of control	130 % of control	107 % of control	88 % of control	32 % of control	78 % of control	CN(C)c1nc2ccc1CCCCn1cc(c3ccccc31)C1=C(C(=O)NC1=O)c1cn(c3ccccc13)CCC2 [Cpd 1, 31-(dimethylamino)-5,15,25,32-tetraazaheptacyclo[28.2.2.1^5,12.1^18,25.0^6,11.0^13,17.0^19,24]hexatriaconta-1(32),6,8,10,12(36),13(17),18(35),19,21,23,30,33-dodecaene-14,16-dione]
129 % of control	106 % of control	70 % of control	108 % of control	111 % of control	96 % of control	84 % of control	124 % of control	119 % of control	119 % of control	96 % of control	10 % of control	115 % of control	CN(C)c1cc2cc(n1)CCCn1cc(c3ccccc31)C1=C(C(=O)NC1=O)c1cn(c3ccccc13)CCC2 [Cpd 2, 20-(dimethylamino)-4,14,19,26-tetraazaheptacyclo[24.6.1.1^7,14.1^18,22.0^2,6.0^8,13.0^27,32]pentatriaconta-1(33),2(6),7(35),8,10,12,18(34),19,21,27,29,31-dodecaene-3,5-dione]
121 % of control	106 % of control	74 % of control	107 % of control	112 % of control	108 % of control	114 % of control	125 % of control	119 % of control	126 % of control	101 % of control	12 % of control	103 % of control	O=C1NC(=O)C2=C1c1cn(c3ccccc13)CCCc1cc(nc(N3CCCC3)c1)CCCn1cc2c2ccccc21 [Cpd 6, 20-pyrrolidin-1-yl-4,14,19,26-tetraazaheptacyclo[24.6.1.1^7,14.1^18,22.0^2,6.0^8,13.0^27,32]pentatriaconta-1(33),2(6),7(35),8,10,12,18(34),19,21,27,29,31-dodecaene-3,5-dione]
130 % of control	104 % of control	91 % of control	111 % of control	109 % of control	104 % of control	117 % of control	130 % of control	113 % of control	113 % of control	102 % of control	63 % of control	114 % of control	O=C1NC(=O)C2=C1c1cn(c3ccccc13)CCCc1ccc(c(N3CCCC3)n1)CCCn1cc2c2ccccc21 [Cpd 7, 31-pyrrolidin-1-yl-5,15,25,30-tetraazaheptacyclo[27.2.2.1^5,12.1^18,25.0^6,11.0^13,17.0^19,24]pentatriaconta-1(31),6,8,10,12(35),13(17),18(34),19,21,23,29,32-dodecaene-14,16-dione]
